Data from ChEMBL document CHEMBL1146329, “Structure-activity relationship in the 3-iodo-4-phenoxypyridinone (IOPY) series: The nature of the C-3 substituent on anti-HIV activity” (Bioorg Med Chem Lett, 2007).

Legend:
[1] = test system: Human immunodeficiency virus 1; assay: Antiviral activity against HIV1 LAI assessed as inhibition of viral-induced cytopathicity in MT4 cells by MTT method; format: functional, organism-based; details: Human immunodeficiency virus 1, LAI
[2] = test system: Human immunodeficiency virus 1; assay: Antiviral activity against HIV1 with RT 103N mutant assessed as inhibition of viral-induced cytopathicity in MT4 cells by MTT method; format: functional, organism-based; details: Human immunodeficiency virus 1, MT4
[3] = test system: Human immunodeficiency virus 1; assay: Antiviral activity against HIV1 RT 181C mutant assessed as inhibition of viral-induced cytopathicity in MT4 cells by MTT method; format: functional, organism-based; details: Human immunodeficiency virus 1, MT4
[4] = test system: Human immunodeficiency virus 1; assay: Antiviral activity against HIV1 RT 188L mutant assessed as inhibition of viral-induced cytopathicity in MT4 cells by MTT method; format: functional, organism-based; details: Human immunodeficiency virus 1, MT4
[5] = test system: Human immunodeficiency virus 1; assay: Antiviral activity against HIV1 RT 100I/103N mutant assessed as inhibition of viral-induced cytopathicity in MT4 cells by MTT method; format: functional, organism-based; details: Human immunodeficiency virus 1, MT4
[6] = test system: Human immunodeficiency virus 1; assay: Antiviral activity against HIV1 RT 103N/181C mutant assessed as inhibition of viral-induced cytopathicity in MT4 cells by MTT method; format: functional, organism-based; details: Human immunodeficiency virus 1, MT4
[7] = Selectivity index, ratio of CC50 for MT4 cells to IC50 for HIV1 LAI; format: functional
[8] = test system: Human immunodeficiency virus 1; assay: Antiviral activity against HIV1 RT 100I mutant assessed as inhibition of viral-induced cytopathicity in MT4 cells by MTT method; format: functional, organism-based; details: Human immunodeficiency virus 1, MT4

Compound: CCc1c(C)[nH]c(=O)c(/C=C/I)c1Oc1cc(C)cc(C)c1
- IC50 [1]: 100 nM

Compound: CCc1c(C)[nH]c(=O)c(Br)c1Oc1cc(C)cc(C)c1
- IC50 [1]: 1.99 nM
- IC50 [2]: 39.8 nM
- IC50 [3]: 63.1 nM
- IC50 [4]: 631 nM
- IC50 [5]: 63.1 nM
- IC50 [6]: 158 nM
- Ratio CC50/IC50 [7]: 90119

Compound: CCc1c(C)[nH]c(=O)c(I)c1Oc1cc(C)cc(C)c1
- IC50 [1]: 1.25 nM
- IC50 [2]: 3.16 nM
- IC50 [3]: 19.9 nM
- IC50 [4]: 50.1 nM
- IC50 [8]: 6.31 nM
- IC50 [5]: 19.9 nM
- IC50 [6]: 39.8 nM
- Ratio CC50/IC50 [7]: 9000

Compound: C=Cc1c(Oc2cc(C)cc(C)c2)c(CC)c(C)[nH]c1=O
- IC50 [1]: 3.1 nM
- IC50 [2]: 3.1 nM
- IC50 [3]: 19.9 nM
- IC50 [4]: 12.5 nM
- IC50 [8]: 6.3 nM
- IC50 [6]: 200 nM
- Ratio CC50/IC50 [7]: 6309

Compound: CCc1c(C)[nH]c(=O)c(CC)c1Oc1cc(C)cc(C)c1
- IC50 [1]: 3.1 nM
- IC50 [2]: 39.8 nM
- IC50 [3]: 39.8 nM
- IC50 [4]: 63.1 nM
- IC50 [8]: 12.5 nM
- Ratio CC50/IC50 [7]: 3162

Compound: CCc1c(C)[nH]c(=O)c(C(=O)N(C)C)c1Oc1cc(C)cc(C)c1
- IC50 [1]: 5020 nM

Compound: CCc1c(C)[nH]c(=O)c(-c2ccsc2)c1Oc1cc(C)cc(C)c1
- IC50 [1]: 50.1 nM

Compound: CCc1c(C)[nH]c(=O)c(SCCC(N)=O)c1Oc1cc(C)cc(C)c1
- IC50 [1]: 12.5 nM
- IC50 [2]: 316 nM
- IC50 [3]: 794 nM
- IC50 [4]: 2510 nM
- IC50 [8]: 158 nM
- Ratio CC50/IC50 [7]: 1995

Compound: CCSc1c(Oc2cc(C)cc(C)c2)c(CC)c(C)[nH]c1=O
- IC50 [1]: 125 nM

Compound: CCc1c(C)[nH]c(=O)c(/C=C/CO)c1Oc1cc(C)cc(C)c1
- IC50 [1]: 63.1 nM

Compound: CCc1c(C)[nH]c(=O)c(C2CC2)c1Oc1cc(C)cc(C)c1
- IC50 [1]: 6.3 nM
- IC50 [2]: 199 nM
- IC50 [3]: 158 nM
- IC50 [4]: 158 nM
- IC50 [8]: 39.8 nM
- Ratio CC50/IC50 [7]: 1259

Compound: CCc1c(C)[nH]c(=O)c([S+](C)[O-])c1Oc1cc(C)cc(C)c1 (stereo unspecified)
- IC50 [1]: 15.8 nM
- Ratio CC50/IC50 [7]: 6309

Compound: CCOC(=O)c1c(Oc2cc(C)cc(C)c2)c(CC)c(C)[nH]c1=O
- IC50 [1]: 631 nM

Compound: CCc1c(C)[nH]c(=O)c(C#N)c1Oc1cc(C)cc(C)c1
- IC50 [1]: 79.4 nM

Compound: CCc1c(C)[nH]c(=O)c(CO)c1Oc1cc(C)cc(C)c1
- IC50 [1]: 19.9 nM
- Ratio CC50/IC50 [7]: 5012

Compound: C/C=C/c1c(Oc2cc(C)cc(C)c2)c(CC)c(C)[nH]c1=O
- IC50 [1]: 39.8 nM

Compound: CCc1c(C)[nH]c(=O)c(Cl)c1Oc1cc(C)cc(C)c1
- IC50 [1]: 6.3 nM
- IC50 [2]: 19.9 nM
- IC50 [3]: 100 nM
- IC50 [4]: 398 nM
- IC50 [8]: 31.6 nM
- Ratio CC50/IC50 [7]: 10000

Compound: CCOC(=O)/C=C/c1c(Oc2cc(C)cc(C)c2)c(CC)c(C)[nH]c1=O
- IC50 [1]: 6310 nM

Compound: CCc1c(C)[nH]c(=O)c(/C=N/O)c1Oc1cc(C)cc(C)c1
- IC50 [1]: 31.6 nM

Compound: O=C1Nc2ccc(Cl)cc2C(C#CC2CC2)(C(F)(F)F)O1 (single isomer, unassigned) [EFAVIRENZ]
- IC50 [5]: 1000 nM

Compound: CCc1c(C)[nH]c(=O)c(C#Cc2ccccc2)c1Oc1cc(C)cc(C)c1
- IC50 [1]: 15800 nM

Compound: CCc1c(C)[nH]c(=O)c(C(C)C)c1Oc1cc(C)cc(C)c1
- IC50 [1]: 19.9 nM
- IC50 [2]: 39.8 nM
- IC50 [3]: 39.8 nM
- IC50 [4]: 31.6 nM
- IC50 [8]: 12.5 nM
- Ratio CC50/IC50 [7]: 5012

Compound: CCc1c(C)[nH]c(=O)c(Sc2ccccc2)c1Oc1cc(C)cc(C)c1
- IC50 [1]: 10 nM
- IC50 [2]: 794 nM
- IC50 [3]: 158 nM
- IC50 [4]: 794 nM
- IC50 [8]: 125 nM
- IC50 [5]: 1580 nM
- IC50 [6]: 1580 nM
- Ratio CC50/IC50 [7]: 5012

Compound: CCc1c(C)[nH]c(=O)c(-c2ccco2)c1Oc1cc(C)cc(C)c1
- IC50 [1]: 15.8 nM
- Ratio CC50/IC50 [7]: 126

Compound: CCc1c(C)[nH]c(=O)c(OC)c1Oc1cc(C)cc(C)c1
- IC50 [1]: 2.5 nM
- IC50 [2]: 79.4 nM
- IC50 [3]: 158 nM
- IC50 [4]: 794 nM
- IC50 [8]: 31.6 nM
- IC50 [5]: 316 nM
- IC50 [6]: 501 nM
- Ratio CC50/IC50 [7]: 39811

Compound: CCc1c(C)[nH]c(=O)c(C(F)(F)F)c1Oc1cc(C)cc(C)c1
- IC50 [1]: 3.1 nM
- IC50 [2]: 12.5 nM
- IC50 [3]: 50.1 nM
- IC50 [4]: 199 nM
- IC50 [8]: 31.6 nM
- Ratio CC50/IC50 [7]: 12589

Compound: CCc1c(Oc2cc(C)cc(C)c2)cc(=O)[nH]c1C
- IC50 [1]: 398 nM

Compound: CCc1c(C)[nH]c(=O)c(SC)c1Oc1cc(C)cc(C)c1
- IC50 [1]: 1.99 nM
- IC50 [2]: 31.6 nM
- IC50 [3]: 31.6 nM
- IC50 [4]: 125 nM
- IC50 [8]: 19.9 nM
- IC50 [5]: 63.1 nM
- IC50 [6]: 31.6 nM
- Ratio CC50/IC50 [7]: 25119
